Conditions: Liquid, Vibrating tube method

CC(C)CO [2-methyl-1-propanol]
Conditions | mass density [kg/m3]
313.15 K, 14927 kPa | 799.577
313.15 K, 17845 kPa | 801.775
313.15 K, 20040 kPa | 803.389
313.15 K, 21942 kPa | 804.76
313.15 K, 24894 kPa | 806.85
313.15 K, 28132 kPa | 809.095
313.15 K, 29974 kPa | 810.333
313.15 K, 32058 kPa | 811.716
313.15 K, 35162 kPa | 813.664
313.15 K, 37952 kPa | 815.444
313.15 K, 40011 kPa | 816.732
313.15 K, 41939 kPa | 817.878
313.15 K, 45098 kPa | 819.95
313.15 K, 47966 kPa | 821.512
313.15 K, 49918 kPa | 822.65
313.15 K, 52024 kPa | 823.857
313.15 K, 54951 kPa | 825.557
313.15 K, 58062 kPa | 827.336
313.15 K, 60202 kPa | 828.515
313.15 K, 65050 kPa | 831.15
313.15 K, 66082 kPa | 831.7
313.16 K, 33053 kPa | 812.371
313.16 K, 33131 kPa | 812.356
313.16 K, 34040 kPa | 812.94
313.16 K, 62187 kPa | 829.599
318.15 K, 368.3 kPa | 783.457
318.15 K, 589.4 kPa | 783.667
318.15 K, 9887.6 kPa | 791.657
318.15 K, 33065 kPa | 808.852
318.15 K, 33128 kPa | 808.894
318.15 K, 35190 kPa | 810.134
318.15 K, 48088 kPa | 818.249
318.15 K, 52184 kPa | 820.67
318.15 K, 60194 kPa | 825.273
318.15 K, 62260 kPa | 826.409
318.15 K, 65194 kPa | 828.017
318.15 K, 66060 kPa | 828.484
318.16 K, 128.5 kPa | 783.253
318.16 K, 858.2 kPa | 783.902
318.16 K, 1069.5 kPa | 784.105
318.16 K, 1979.1 kPa | 784.923
318.16 K, 2997.4 kPa | 785.79
318.16 K, 4942.6 kPa | 787.513
318.16 K, 6987.2 kPa | 789.27
318.16 K, 8967.5 kPa | 790.929
318.16 K, 11870 kPa | 793.265
318.16 K, 14863 kPa | 795.639
318.16 K, 17735 kPa | 797.848
318.16 K, 19860 kPa | 799.438
318.16 K, 21987 kPa | 801.004
318.16 K, 25193 kPa | 803.357
318.16 K, 27823 kPa | 805.216
318.16 K, 30119 kPa | 806.799
318.16 K, 32145 kPa | 808.205
318.16 K, 34164 kPa | 809.488
318.16 K, 38074 kPa | 812.009
318.16 K, 40048 kPa | 813.265
318.16 K, 41997 kPa | 814.496
318.16 K, 45096 kPa | 816.426
318.16 K, 50173 kPa | 819.491
318.16 K, 55235 kPa | 822.46
318.16 K, 58075 kPa | 824.084
323.15 K, 62.1 kPa | 778.89
323.15 K, 338 kPa | 779.159
323.15 K, 557.5 kPa | 779.374
323.15 K, 917.3 kPa | 779.697
323.15 K, 2125.4 kPa | 780.833
323.15 K, 3154.8 kPa | 781.778
323.15 K, 5126.4 kPa | 783.557
323.15 K, 7366.8 kPa | 785.517
323.15 K, 9081.6 kPa | 787.01
323.15 K, 10156 kPa | 787.907
323.15 K, 12167 kPa | 789.544
323.15 K, 15030 kPa | 791.876
323.15 K, 18076 kPa | 794.274
323.15 K, 19932 kPa | 795.694
323.15 K, 22079 kPa | 797.333
323.15 K, 25085 kPa | 799.541
323.15 K, 28006 kPa | 801.644
323.15 K, 30029 kPa | 803.084
323.15 K, 31969 kPa | 804.431

From the NIST ThermoML archive (doi:10.1021/je5010214)
